Assays:
Assay type in all cases: cell-based
M4 muscarinic receptor = target: T1, M4 muscarinic receptor (Homo sapiens, UniProt P08173); experiment: Functional mobilization of intracellular calcium (FLIPR) in CHO cells expressing M4; conditions: for EC50: CHO cells expressing M4, FLIPR calcium; for Emax: CHO, read-out: M4 Efficacy
T1 construct: expressed in transfected cells; host or cells: CHO (M4-CHO)
T1 sequence (P08173 1-479): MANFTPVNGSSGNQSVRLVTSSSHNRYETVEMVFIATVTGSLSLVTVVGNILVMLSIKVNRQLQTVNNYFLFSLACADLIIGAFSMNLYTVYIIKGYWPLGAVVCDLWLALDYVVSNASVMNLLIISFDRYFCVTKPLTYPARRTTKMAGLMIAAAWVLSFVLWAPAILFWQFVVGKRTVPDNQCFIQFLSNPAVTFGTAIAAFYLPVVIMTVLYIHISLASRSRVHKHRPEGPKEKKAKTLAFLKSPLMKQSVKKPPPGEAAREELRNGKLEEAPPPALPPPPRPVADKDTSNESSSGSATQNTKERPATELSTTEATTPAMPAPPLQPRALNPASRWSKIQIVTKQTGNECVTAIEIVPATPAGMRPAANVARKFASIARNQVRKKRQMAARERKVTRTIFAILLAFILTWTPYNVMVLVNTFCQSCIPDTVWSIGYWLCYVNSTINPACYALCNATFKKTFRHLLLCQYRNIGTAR
Method: (§1) Functional Mobilization of Intracellular Calcium to Determine Muscarinic Receptor Activity:
(§2) CHO cells expressing muscarinic receptors (M1 to M5) are grown as monolayers in tissue culture flasks at 37° C. in a humidified atmosphere containing 5% CO2 and passaged every 3-5 days. The growth media is Dulbecco's modified eagles medium (DMEM, Gibco Cat# 12430-054), containing 25 mM Hepes and supplemented with Fetal Bovine Serum (Hyclone, cat# SH30071.03), 0.1 mM of MEM non-essential amino acids (GIBCO, Cat# 11140-050), 1 mM MEM Sodium Pyruvate (GIBCO Cat# 11360-070) and 100 units/ml of Penicillin G and 100 μg/ml of Streptomycin (GIBCO Cat# 15140-122). The recombinant muscarinic receptor cell lines are grown under antibiotic pressure with media containing 25 μg/ml zeocin and 500 μg/ml G418 (M1-CHO), 4 μg/ml puromycin, 50 μg/ml zeocin and 2.5 μg/ml blasticidin (M2 and M4-CHO) or 50 μg/ml zeocin and 4 μg/ml puromycin (M3 and M5-CHO).
(§3) Cells are harvested at 80-90% confluence using Versene (GIBCO Cat# 15040-066), collected by centrifugation and seeded 18-24 hrs prior to running the calcium assay at a density of 5,000-10,000 cells/well in […], clear-bottomed 384-well plates (BD Biocoat, poly-D-lysine, Cat#356663). The day of the experiment, the cells are washed with a plate washer (Bioteck Instruments, ELX 405) using bath 1 buffer (140 mM NaCl, 4,5 mM KCl, 2 mM CaCl2, 1 mM MgCl2, 10 mM Hepes-Na, 10 mM Glucose, pH 7.4, with NaOH) containing 1 mM Probenecid. Next, the calcium dye Fluo-3 (25 μl/well of Fluo-3 AM at 4 μM, Molecular Probes F-1241, in Bath 1 buffer containing 1 mM Probenecid) is added to the 25 μl of Bath 1 remaining in each well after the plate wash and the dye is loaded at 37° C. in the tissue culture incubator for 60-90 min. The fluorescent dye is removed using the plate washer with Bath 1 containing 1 mM Probenecid, leaving 25 μl/well of this solution after the wash. Alternatively, cells can be loaded with the calcium indicator from Molecular Devices (Calcium 3 Assay Reagents, Cat #R7181) adding 5 μl of a 5× solution dye in Bath 1 containing 1 mM Probenecid (10 ml per dye flask cat#R7182 to generate a solution […]) to 20 μl of the same buffer. After loading for 60 min, the experiment can be run without having to remove the dye.
(§4) Compounds are prepared at a 2× fold concentration in a 96-well plate (round bottom, Costar Corning cat#3656), by reconstituting the pre-spotted compounds in bath 1 containing 1 mM probenecid. The final concentration DMSO is 0.5%, and the amount of DMSO is normalized across the assay plate. To determine an agonist action of the compounds on muscarinic receptors, the reconstituted compounds are added (25 μl compound/well) to the cell assay plate (containing 25 μl/well) using the multi-channel robotic system of the FLIPR 3 Instrument (Molecular Devices, Sunnyvale, Calif.). To determine a functional inhibitory action of the compounds on muscarinic receptors, the reconstituted compounds are added (25 μl compound/well) to the assay plate and pre-incubated for 15 min prior to adding 25 μl of Carbachol at 3× the EC80 for each muscarinic subtype. Alternatively, the compounds can be co-applied simultaneously with the agonist. In both assay modes, the fluorescence is recorded for 60 sec (excitation wavelength is […] and emission wavelength 540 nm) using the FLIPR 3 instrument.
(§5) The potency, efficacy and selectivity of the muscarinic compounds were evaluated by screening the compound activity across the whole family (M1 to M5 cells). Compounds were also screened for activity on other proteins such as other GPCRs and ion channels to determine selectivity on M4 receptors.

M2 muscarinic receptor = target: T2, M2 muscarinic receptor (Homo sapiens, UniProt P08172); experiment: Functional mobilization of intracellular calcium (FLIPR) in CHO cells expressing M2; conditions: for EC50: CHO cells expressing M2, FLIPR calcium; for Emax: CHO, read-out: M2 Efficacy
T2 construct: expressed in transfected cells; host or cells: CHO (M2-CHO)
T2 sequence (P08172 1-466): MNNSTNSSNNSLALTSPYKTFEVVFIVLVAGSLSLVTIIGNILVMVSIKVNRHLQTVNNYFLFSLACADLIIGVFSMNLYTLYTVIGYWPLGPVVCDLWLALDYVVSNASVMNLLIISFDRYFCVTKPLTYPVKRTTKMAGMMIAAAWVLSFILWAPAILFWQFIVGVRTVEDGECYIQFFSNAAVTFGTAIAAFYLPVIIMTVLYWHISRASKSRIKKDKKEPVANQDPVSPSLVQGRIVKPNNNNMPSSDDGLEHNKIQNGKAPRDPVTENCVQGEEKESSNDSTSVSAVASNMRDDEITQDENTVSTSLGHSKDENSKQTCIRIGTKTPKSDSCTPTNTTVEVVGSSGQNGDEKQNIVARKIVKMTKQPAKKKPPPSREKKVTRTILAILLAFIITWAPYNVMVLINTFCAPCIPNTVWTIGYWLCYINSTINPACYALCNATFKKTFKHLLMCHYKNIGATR
Method: as §1, §2, §3, §4, §5

M3 muscarinic receptor = target: T3, M3 muscarinic receptor (Homo sapiens, UniProt P20309); experiment: Functional mobilization of intracellular calcium (FLIPR) in CHO cells expressing M3; conditions: for EC50: CHO cells expressing M3, FLIPR calcium; for Emax: CHO, read-out: M3 Efficacy
T3 construct: expressed in transfected cells; host or cells: CHO (M3-CHO)
Method: as §1, §2, §3, §4, §5

M1 muscarinic receptor = target: T4, M1 muscarinic receptor (Homo sapiens, UniProt P11229); experiment: Functional mobilization of intracellular calcium (FLIPR) in CHO cells expressing M1; conditions: for EC50: CHO cells expressing M1, FLIPR calcium; for Emax: CHO, read-out: M1 Efficacy
T4 construct: expressed in transfected cells; host or cells: CHO (M1-CHO)
T4 sequence (P11229 1-460): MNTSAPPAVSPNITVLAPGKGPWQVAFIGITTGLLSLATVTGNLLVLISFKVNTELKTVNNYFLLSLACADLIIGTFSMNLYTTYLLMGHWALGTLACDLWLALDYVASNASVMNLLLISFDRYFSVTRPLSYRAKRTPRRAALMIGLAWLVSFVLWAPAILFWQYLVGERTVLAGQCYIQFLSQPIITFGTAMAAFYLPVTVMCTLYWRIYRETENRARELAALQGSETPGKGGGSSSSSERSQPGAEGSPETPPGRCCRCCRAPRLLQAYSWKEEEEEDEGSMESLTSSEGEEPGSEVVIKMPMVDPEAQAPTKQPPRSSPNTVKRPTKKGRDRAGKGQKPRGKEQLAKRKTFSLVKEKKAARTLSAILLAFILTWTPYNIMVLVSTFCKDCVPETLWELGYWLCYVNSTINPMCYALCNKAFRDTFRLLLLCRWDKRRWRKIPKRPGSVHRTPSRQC
Method: as §1, §2, §3, §4, §5

[1] = 100% = maximum response obtained with the Carbachol control

T3 sequence (P20309 whole entry): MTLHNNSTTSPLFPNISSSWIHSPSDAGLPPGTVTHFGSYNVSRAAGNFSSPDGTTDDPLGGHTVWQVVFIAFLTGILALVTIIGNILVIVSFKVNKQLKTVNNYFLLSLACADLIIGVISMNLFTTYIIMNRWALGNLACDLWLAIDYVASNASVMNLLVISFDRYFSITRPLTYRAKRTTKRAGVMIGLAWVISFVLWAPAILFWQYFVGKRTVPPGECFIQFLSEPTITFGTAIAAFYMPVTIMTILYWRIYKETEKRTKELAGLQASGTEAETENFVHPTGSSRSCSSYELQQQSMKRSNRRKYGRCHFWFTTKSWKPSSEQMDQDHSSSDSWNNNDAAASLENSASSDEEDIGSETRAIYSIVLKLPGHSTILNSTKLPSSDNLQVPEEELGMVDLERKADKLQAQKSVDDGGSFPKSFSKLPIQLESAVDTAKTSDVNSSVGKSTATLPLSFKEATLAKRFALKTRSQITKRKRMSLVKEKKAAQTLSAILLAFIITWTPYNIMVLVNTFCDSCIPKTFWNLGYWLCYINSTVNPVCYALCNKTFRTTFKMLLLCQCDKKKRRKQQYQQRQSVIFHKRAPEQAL

Row | SMILES | EC50 (M4 muscarinic receptor) [µM] | Emax (M4 muscarinic receptor; [1]) [%] | EC50 (M2 muscarinic receptor) [µM] | Emax (M2 muscarinic receptor; [1]) [%] | EC50 (M3 muscarinic receptor) [µM] | Emax (M3 muscarinic receptor; [1]) [%] | EC50 (M1 muscarinic receptor) [µM] | Emax (M1 muscarinic receptor; [1]) [%] | M4 Efficacy (M4 muscarinic receptor; [1]) | M2 Efficacy (M2 muscarinic receptor; [1]) | M3 Efficacy (M3 muscarinic receptor; [1]) | M1 Efficacy (M1 muscarinic receptor; [1])
1 | CCN(C(=O)C1CCOC1)[C@H]1CCC2(CCN(CCC(C)(C)C)CC2)c2ccccc21 (stereo partly shown) [compound 9] | < 2 | 25 to 100 | > 5 | < 25 | > 5 | < 25 | > 5 | 25 to 100 |  |  |  | 
2 | CCN(C(=O)c1cscn1)[C@H]1CCC2(CCN(CCC(C)(C)C)CC2)c2ccccc21 [compound 10] | < 2 | 25 to 100 | > 5 | < 25 | > 5 | < 25 | > 5 | < 25 |  |  |  | 
3 | CCC(=O)N[C@@H]1CCC2(CCN(CCC(C)(C)C)CC2)c2cc(F)ccc21 [compound 11] | < 2 | 25 to 100 | > 5 | < 25 | > 5 | < 25 | < 2 | 25 to 100 |  |  |  | 
4 | CCOC(=O)N[C@H]1CCC2(CCN(CCC(C)(C)C)CC2)c2ccccc21 [compound 12] | < 2 | 25 to 100 | < 2 | 25 to 100 | > 5 | < 25 | < 2 | 25 to 100 |  |  |  | 
5 | CCC(=O)N1CCCC(C(=O)N[C@@H]2CCC3(CCN(CCC(C)(C)C)CC3)c3ccccc32)C1 (stereo partly shown) [compound 13] | < 2 | 25 to 100 | > 5 | < 25 | > 5 | < 25 | > 5 | < 25 |  |  |  | 
6 | CC(=O)N[C@H](C)C(=O)N[C@@H]1CCC2(CCN(CCC(C)(C)C)CC2)c2ccccc21 [compound 14] | < 2 |  | 2 to 5 |  | > 5 |  | > 5 |  | ++ (efficacy was calculated to be from 100% to 25%) | + (efficacy was calculated to be less than 25%) | + (efficacy was calculated to be less than 25%) | ++ (efficacy was calculated to be from 100% to 25%)
7 | CCN(C(=O)C1CCCN1C(C)=O)[C@H]1CCC2(CCN(CCC(C)(C)C)CC2)c2ccccc21 (stereo partly shown) [compound 15] | < 2 | 25 to 100 | > 5 | < 25 | > 5 | < 25 | < 2 | 25 to 100 |  |  |  | 
8 | COC(=O)CCCN1CCC2(CC[C@H](NC(C)=O)c3ccccc32)CC1 [compound 16] | > 5 | 25 to 100 | > 5 | < 25 | > 5 | < 25 | 2 to 5 | 25 to 100 |  |  |  | 
9 | CC(C)(C)CCN1CCC2(CC[C@@H](NC(=O)CC3CCCC3=O)c3ccc(F)cc32)CC1 (stereo partly shown) [compound 17] | < 2 | 25 to 100 | > 5 | < 25 | > 5 | < 25 | < 2 | 25 to 100 |  |  |  | 
10 | CC(=O)CCC(=O)N[C@H]1CCC2(CCN(CCC(C)(C)C)CC2)c2ccccc21 [compound 18] | < 2 | 25 to 100 | < 2 | 25 to 100 | > 5 | < 25 | < 2 | 25 to 100 |  |  |  | 
11 | COC(C)(C)CCCC(C)CCN1CCC2(CC[C@H](NC(=O)N(C)C)c3ccccc32)CC1 (stereo partly shown) [compound 19] | > 5 | < 25 | > 5 | < 25 | > 5 | < 25 | > 5 | < 25 |  |  |  | 
12 | CC(=O)NCCC(=O)N[C@@H]1CCC2(CCN(CCC(C)(C)C)CC2)c2cc(F)ccc21 [compound 20] | < 2 | 25 to 100 | < 2 | 25 to 100 | > 5 | < 25 | < 2 | 25 to 100 |  |  |  | 
13 | CCOCCC(=O)N[C@@H]1CCC2(CCN(CCC(C)(C)C)CC2)c2ccccc21 [compound 21] | < 2 | 25 to 100 | < 2 | 25 to 100 | > 5 | < 25 | < 2 | 25 to 100 |  |  |  | 
14 | C[C@@H](C(=O)N[C@@H]1CCC2(CCN(CCC(C)(C)C)CC2)c2cc(F)ccc21)N1CCCC1=O [compound 22] | < 2 | 25 to 100 | 2 to 5 | < 25 | > 5 | < 25 | 2 to 5 | 25 to 100 |  |  |  | 

Reference: patent publication US8003660B2, “Modulators of muscarinic receptors” (Vertex Pharmaceuticals Incorporated, priority 2006, dated 2011)
